Laboratory results as given in patent US20090221547A1, “Immunosuppressant Compounds and Compositions” (IRM LLC, priority 2005, published 2009).

Key:
human EDG-1 = target: T1, human EDG-1 (Homo sapiens, UniProt P21453); assay: EDG-1 (S1P1) GTP [γ-35S] binding assay (SPA), membranes of CHO cells; assay type: biochemical; details: membranes from CHO cells expressing human EDG-1
T1 construct: c-myc (N); expressed in transfected cells; host or cells: CHO cell clones (membrane preparation)
Procedure: (§1) A. In vitro: A scintillation proximity assay (SPA) for measuring GTP [γ-^35S] binding to membranes prepared from CHO cells expressing human EDG/S1P receptors.
EDG-1 (S1P1) GTP [γ-^35S] binding assay: Membrane protein suspensions are prepared from CHO cell clones stably expressing a human EDG-1 N-terminal c-myc tag. Solutions of test compounds ranging from 10 mM to 0.0 nM are prepared in DMSO/50 mM HCl and then diluted into assay buffer (20 mM HEPES, pH7.4, 100 mM NaCl, 10 mM MgCl2, 0.1% fat free BSA). Assay buffer-containing […] is mixed with wheat-germ agglutinin-coated SPA-beads (1 mg/well) followed by the addition of human EDG-1 membrane protein suspension (10 μg/well) and test compound. The bead/membrane/compound assay components are then mixed for 10-15 minutes on a shaker at room temperature. GTP [γ-^35S] (200 pM) and bead/membrane/compound assay mixture are added to individual wells of a 96 well Optiplate™ (final volume 225 μl/well), sealed and incubated at room temperature for 110 to 120 minutes under constant shaking. After centrifugation (2000 rpm, 10 minutes) luminescence is measured with a TopCount™ instrument.
EC50 values are obtained by fitting the GTP [γ-^35S] binding curves (raw data) with the dose response curve-fitting tool of ORIGIN V. 6.1. […]

[1] = test system: EDG-3, EDG-5, EDG-6 and EDG-8; assay: EDG-3, -5, -6 and -8 GTP [γ-35S] binding assays (SPA), CHO or RH7777 membranes; assay type: biochemical, human
From the text: as §1
EC50 values are obtained by fitting the GTP [γ-^35S] binding curves (raw data) with the dose response curve-fitting tool of ORIGIN V. 6.1. Basal binding (no compound) and the highest stimulation of GTP [γ-^35S] binding achieved by an agonist are used as the fitting range. Seven different concentrations are used to generate a concentration response curve (using two or three data points per concentration).
Concentrations of EDG receptor expressing membranes range between 13-19 μg per well. […] For example, 5-[4-(2′-fluoro-2-trifluoromethyl-biphenyl-4-yloxymethyl)-phenyl]-pyridine-2-carboxylic acid has an EC50 of 0.9 nM in the above assay and is at least 500 fold selective for EDG-1 compared to one or more of the other receptors including EDG-3, EDG-5, EDG-6 and EDG-8.

[2] = test system: peripheral blood lymphocytes; assay: Blood lymphocyte depletion, measurement of circulating lymphocytes; assay type: in vivo; details: Rattus norvegicus, Lewis rats, oral gavage 0.01-5 mg/kg, blood 6 and 48 hours after administration, read-out: ED50, effective dose required displaying 50% of blood lymphocyte depletion
Procedure: C. In vivo: Screening Assays for Measurement of Blood Lymphocyte Depletion
Measurements of circulating lymphocytes: Compounds are dissolved in DMSO and PEG300 and diluted to obtain a final concentration of 2% DMSO and 2% PEG300 (v/v, final concentration). Lewis rats are administered compound solution orally by gavages at 0.01-5 mg/kg under short isoflurane anesthesia.
Blood is collected from the retro-orbital sinus 6 and 48 hours after drug administration under short isoflurane anesthesia. Whole blood samples are subjected to hematology analysis. Peripheral lymphocyte counts are determined using an automated analyzer. Subpopulations of peripheral blood lymphocytes are stained by fluorochrome-conjugated specific antibodies and analyzed using a fluorescent activating cell sorter (Facscalibur). Two to three rats are used to assess the lymphocyte depletion activity of each compound screened. The result is an ED50, which is defined as the effective dose required displaying 50% of blood lymphocyte depletion.

T1 sequence (P21453 whole entry): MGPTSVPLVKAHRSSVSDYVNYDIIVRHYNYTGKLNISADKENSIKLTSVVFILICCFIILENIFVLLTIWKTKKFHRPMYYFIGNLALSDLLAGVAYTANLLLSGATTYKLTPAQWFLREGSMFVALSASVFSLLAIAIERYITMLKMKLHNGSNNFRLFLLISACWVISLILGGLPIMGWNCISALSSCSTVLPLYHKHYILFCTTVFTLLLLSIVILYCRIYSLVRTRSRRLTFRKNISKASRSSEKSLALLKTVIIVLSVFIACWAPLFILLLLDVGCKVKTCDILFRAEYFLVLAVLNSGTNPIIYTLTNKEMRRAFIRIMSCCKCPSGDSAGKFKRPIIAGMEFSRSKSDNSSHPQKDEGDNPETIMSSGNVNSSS

EC50 (human EDG-1): 0.9 nM
fold selective for EDG-1 compared to one or more of the other receptors including EDG-3, EDG-5, EDG-6 and EDG-8 [1]: at least 500 fold
Structure (SMILES): O=C(O)c1ccc(-c2ccc(COc3ccc(-c4ccccc4F)c(C(F)(F)F)c3)cc2)cn1 [Example 1, 5-[4-(2′-Fluoro-2-trifluoromethyl-biphenyl-4-yloxymethyl)-phenyl]-pyridine-2-carboxylic acid]
ED50 [2]: 0.3 mg/kg
